According to patent US10112933B2, “Methods and compositions for treatment of fibrosis” (Baylor College of Medicine, priority 2013, dated 2018):

Test system: MEF/GFP-Stat3α cells
Experiment: HTFM cytoplasmic-to-nuclear translocation of GFP-Stat3α
Assay type: cell-based, murine
Conditions: for IC50: Mus musculus, 0.5 h, MEF/GFP-Stat3α, IL-6 200 ng/ml and IL-6sR 250 ng/ml 30 min, read-out: HTM IC50 (ligand-mediated nuclear translocation of GFP-Stat3α)
Method: Coverslips were examined by confocal fluorescent microscopy using filters to detect GFP (column one), DAPI (column two) or both (merge; column three). In panel B, MEF-GFP-Stat3 cells were grown in 96-well plates with optical glass bottoms and pretreated with the indicated compound at the indicated concentrations in quadruplicate for 1 hour then stimulated with IL-6 (200 ng/ml) and IL-6sR (250 ng/ml) for 30 minutes. Cells were fixed and the plates were examined by high-throughput microscopy to determine the fluorescence intensity in the nucleus (FLIN) and the % ΔFLINMax was calculated as described in Example 1. Data shown are mean±SD and are representative of 2 or more studies. Best-fit curves were generated based on 4 Parameter Logistic Model/Dose Response One Site/XLfit 4.2, IDBS and were used to calculate IC50 (Table 1).
Confocal and high-throughput fluorescence microscopy. Confocal and highthroughput fluorescence microscopy (HTFM) of MEF/GFP-Stat3α cells were performed as described (Huang et al., 2007). Briefly, for confocal fluorescence microscopy, cells were grown in 6-well plates containing a cover slip. For HTFM, cells were seeded into 96-well CC3 plates at a density of 5,000 cells/well using an automated plating system. Cells were cultured under standard conditions until 85-90% confluent. Cells were pretreated with compound for 1 hour at 37° C. then stimulated with IL-6 (200 ng/ml) and IL-6sR (250 ng/ml) for 30 minutes. Cells were fixed with 4% formaldehyde in PEM Buffer (80 mM Potassium PIPES, pH 6.8, 5 mM EGTA pH 7.0, 2 mM MgCl2) for 30 minutes at 4° C., quenched in 1 mg/ml of NaBH4 (Sigma) in PEM buffer and counterstained for 1 min in 4,6-diamidino-2-phenylindole (DAPI; Sigma; 1 mg/ml) in PEM buffer. Cover slips were examined by confocal fluorescent microscopy. Plates were analyzed by automated HTFM using the Cell Lab IC Image Cytometer (IC100) platform and CytoshopVersion 2.1 analysis software (Beckman Coulter). Nuclear translocation is quantified by using the fraction localized in the nucleus (FLIN) measurement (Sharp et al., 2006).
Following its phosphorylation on Y705, Stat3 undergoes a change in conformation from head-to-head dimerization mediated through its N-terminal oligomerization domain to tail-to-tail dimerization mediated by reciprocal SH2/pY705-peptide ligand interactions. This conformational change is followed by nuclear accumulation. Compounds that targeted SH2/pY-peptide ligand interactions of Stat3 would be expected to inhibit nuclear accumulation of Stat3. […]
EXP IIB. High throughput fluorescence microscopy (HTFM), cytoplasm-to-nucleus translocation inhibition assays. […] Plates are analyzed by automated HTFM using the Cell Lab IC Image Cytometer (IC100) platform and CytoshopVersion 2.1 analysis software (Beckman Coulter). […]

Compound	blocked ligand-mediated nuclear translocation of GFP-Stat3 (MEF/GFP-Stat3α cells)	IC50 [µM]
CCN1C(=O)C(=Cc2ccc(-c3cc(C(=O)O)ccc3Cl)o2)C(=O)N(CC)C1=S [Cpd30-12, 4-chloro-3-{5-[(1,3-diethyl-4,6-dioxo-2-thioxotetrahydro-5(2H)-pyrimidinylidene)methyl]-2-furyl}benzoic acid]	not	> 300
O=C(O)c1ccc(C=CC(=O)c2ccc3c(c2)OCCO3)cc1 [Cpd3, 4-[3-(2,3-dihydro-1,4-benzodioxin-6-yl)-3-oxo-1-propen-1-yl]benzoic acid]		131
CCOc1cc(C=C2C(=O)c3ccccc3C2=O)cc(Cl)c1OCc1cccc(C(=O)O)c1 [Cpd3-2, 3-({2-chloro-4-[(1,3-dioxo-1,3-dihydro-2H-inden-2-ylidene)methyl]-6-ethoxyphenoxy}methyl)benzoic acid]		150
